Measurements reported in patent publication US20240109885A1, “2,3-DIHYDRO-1H-PYRROLO[3,2-B]PYRIDINE DERIVATIVE, PREPARATION METHOD THEREFOR, AND APPLICATION THEREOF” (Abbisko Therapeutics Co., Ltd, priority 2020, published 2024).

Tests used:
Format in all cases: cell-based
[1] = target: Ba/F3 EGFR-D770-N771ins_SVD (Homo sapiens, UniProt P00533, DUP768-770, cells depend on it); experiment: Cell proliferation assay (CellTiter-Glo), Ba/F3 EGFR-D770-N771ins_SVD cells; settings: 72 hrs, CTG assay, * = average of multiple measurements, read-out: Ba/F3 EGFR-D770-N771ins_SVD (nM), IC50 of cell proliferation
Ba/F3 EGFR-D770-N771ins_SVD, sequence (P00533 with tags, fused parts or gaps DUP768-770): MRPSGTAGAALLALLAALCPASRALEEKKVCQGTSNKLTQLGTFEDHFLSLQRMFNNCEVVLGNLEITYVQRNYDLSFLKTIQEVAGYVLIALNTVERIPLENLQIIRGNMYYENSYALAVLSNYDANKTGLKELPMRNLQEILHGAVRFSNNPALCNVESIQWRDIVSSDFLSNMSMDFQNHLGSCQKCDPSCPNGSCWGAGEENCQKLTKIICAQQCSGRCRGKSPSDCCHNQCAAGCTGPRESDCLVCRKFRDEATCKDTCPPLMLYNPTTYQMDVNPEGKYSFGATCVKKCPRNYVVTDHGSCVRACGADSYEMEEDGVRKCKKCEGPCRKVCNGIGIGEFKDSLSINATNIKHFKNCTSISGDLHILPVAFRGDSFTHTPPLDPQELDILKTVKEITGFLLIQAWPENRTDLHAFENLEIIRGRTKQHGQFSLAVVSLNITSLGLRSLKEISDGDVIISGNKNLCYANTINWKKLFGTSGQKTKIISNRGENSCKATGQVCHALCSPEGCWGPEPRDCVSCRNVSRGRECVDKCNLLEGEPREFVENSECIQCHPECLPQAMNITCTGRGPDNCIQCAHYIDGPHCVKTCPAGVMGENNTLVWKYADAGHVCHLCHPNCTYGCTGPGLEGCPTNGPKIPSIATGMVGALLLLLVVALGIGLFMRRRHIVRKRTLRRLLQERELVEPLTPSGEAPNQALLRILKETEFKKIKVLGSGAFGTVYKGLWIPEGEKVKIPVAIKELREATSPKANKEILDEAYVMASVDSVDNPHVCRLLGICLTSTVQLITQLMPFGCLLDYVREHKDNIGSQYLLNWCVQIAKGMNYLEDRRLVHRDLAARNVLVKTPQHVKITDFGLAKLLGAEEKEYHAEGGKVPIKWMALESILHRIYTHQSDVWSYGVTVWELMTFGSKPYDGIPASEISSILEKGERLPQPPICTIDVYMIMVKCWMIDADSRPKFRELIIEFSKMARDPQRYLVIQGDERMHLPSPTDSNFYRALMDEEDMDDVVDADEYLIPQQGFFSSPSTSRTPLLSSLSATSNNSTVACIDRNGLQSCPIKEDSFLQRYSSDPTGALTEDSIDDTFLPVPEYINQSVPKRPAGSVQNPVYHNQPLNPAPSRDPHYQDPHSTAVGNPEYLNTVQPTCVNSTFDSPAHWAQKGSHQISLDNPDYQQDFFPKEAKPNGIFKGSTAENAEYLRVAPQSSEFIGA
Protocol: (§1) I. Cell proliferation assay (i) Reagents and consumables • Fetal bovine serum (FBS) (GBICO, Cat #10099-141); • CellTiter-Glo® Luminescent Cell Viability Assay Kit (Promega, Cat #G7572); • Black transparent flat-bottomed 96-well plate (Corning®, Cat #3603).
(§2) • SpectraMax Multi-Label Microplate Detector MD, 2104-0010A; • CO2 incubator, Thermo Scientific 3100 Series; • Biosafety cabinet, Thermo Scientific, 1300 Series type A2; • Inverted microscope, Olympus, CKX41SF; • Siemens refrigerator KK25E76TI. (iii) Cell lines and culture conditions
(§3) (iv) Experimental procedures 1. Cell culture and seeding: • (1) Cells in the logarithmic growth phase were harvested, and counted using a platelet counter. Cell viability was detected by the trypan blue exclusion assay to ensure that the cell viability was above 90%. • (2) The cell concentration was adjusted to achieve the final density; and 90 μL of the cell suspension was added to the 96-well plate. • (3) The cells were incubated in the 96-well plate overnight at 37° C. in the presence of 5% CO2 with 95% humidity. 2. TO benchmark data: • (1) 10 μL of PBS was added to each well of the TO flat plate containing the cells. • (2) The CTG reagent was thawed, and the cell plate was equilibrated to room temperature for 30 min. • (3) An equal volume of CTG solution was added to each well. • (4) The cells were shaken for 5 min on an orbital shaker for lysis. • (5) The cell plate was left at room temperature for 20 min to stabilize luminescent signals. • (6) The values of TO luminescent signals were read. 3. Compound dilution and addition • (1) According to the compound information table, a corresponding volume of DMSO was added to the corresponding compound powder to prepare a 10 mM stock solution. • (2) Compound solutions diluted at 1000 fold and 3.16 fold were prepared. • (3) The compound solution diluted at 1000 fold was diluted at 100 fold with PBS, to prepare the compound solutions at 10 fold in 9 concentrations, with the maximum concentration of […]; and the compound solution was diluted at 3.16 fold. 10 μL of medicament solution was added to each well of the seeded 96-well plate. Three replicate wells were provided for each concentration of the compound, and the final concentration of DMSO was 0.1%. • (4) Cells were placed in the 96-well plate containing the medicament and subsequently cultured for 72 hrs at 37° C. in the presence of 5% CO2 with 95% humidity, and then, CTG assay was conducted. 4. Reading of luminescent signals • (1) The CTG reagent was thawed, and the cell plate was equilibrated to room temperature for 30 min. • (2) An equal volume of CTG solution was added to each well. • (3) The cells were shaken for 5 min on an orbital shaker for lysis.
(§4) (4) The cell plate was left at room temperature for 20 min to stabilize the luminescent signals. • (5) Luminescent values were read. Data processing
(§5) The data were analyzed using software GraphPad Prism 7.0, and fitted by the nonlinear S-curve regression to obtain a dose-effect curve, based on which the IC50 value (unit: nM) was calculated, with the specific test results shown in Table 1.
(§6) Cell viability (%)=(Lum test medicament-Lum culture medium control)/(Lum cell control-Lum culture medium control)×100%.

A431 (EGFR-WT) = experiment: Cell proliferation assay (CellTiter-Glo), A431 cells; settings: Homo sapiens, A-431, 72 hrs, CTG assay, * = average of multiple measurements
Protocol: as §1, §2, §3, §4, §5, §6

[2] = target: Ba/F3 EGFR-V769_D770insASV (Homo sapiens, UniProt P00533, DUP767-769, cells depend on it); experiment: Cell proliferation assay (CellTiter-Glo), Ba/F3 EGFR-V769_D770insASV cells; settings: 72 hrs, CTG assay, * = average of multiple measurements, read-out: Ba/F3 EGFR-V769_D770insASV (nM), IC50 of cell proliferation
Ba/F3 EGFR-V769_D770insASV, sequence (P00533 with tags, fused parts or gaps DUP767-769): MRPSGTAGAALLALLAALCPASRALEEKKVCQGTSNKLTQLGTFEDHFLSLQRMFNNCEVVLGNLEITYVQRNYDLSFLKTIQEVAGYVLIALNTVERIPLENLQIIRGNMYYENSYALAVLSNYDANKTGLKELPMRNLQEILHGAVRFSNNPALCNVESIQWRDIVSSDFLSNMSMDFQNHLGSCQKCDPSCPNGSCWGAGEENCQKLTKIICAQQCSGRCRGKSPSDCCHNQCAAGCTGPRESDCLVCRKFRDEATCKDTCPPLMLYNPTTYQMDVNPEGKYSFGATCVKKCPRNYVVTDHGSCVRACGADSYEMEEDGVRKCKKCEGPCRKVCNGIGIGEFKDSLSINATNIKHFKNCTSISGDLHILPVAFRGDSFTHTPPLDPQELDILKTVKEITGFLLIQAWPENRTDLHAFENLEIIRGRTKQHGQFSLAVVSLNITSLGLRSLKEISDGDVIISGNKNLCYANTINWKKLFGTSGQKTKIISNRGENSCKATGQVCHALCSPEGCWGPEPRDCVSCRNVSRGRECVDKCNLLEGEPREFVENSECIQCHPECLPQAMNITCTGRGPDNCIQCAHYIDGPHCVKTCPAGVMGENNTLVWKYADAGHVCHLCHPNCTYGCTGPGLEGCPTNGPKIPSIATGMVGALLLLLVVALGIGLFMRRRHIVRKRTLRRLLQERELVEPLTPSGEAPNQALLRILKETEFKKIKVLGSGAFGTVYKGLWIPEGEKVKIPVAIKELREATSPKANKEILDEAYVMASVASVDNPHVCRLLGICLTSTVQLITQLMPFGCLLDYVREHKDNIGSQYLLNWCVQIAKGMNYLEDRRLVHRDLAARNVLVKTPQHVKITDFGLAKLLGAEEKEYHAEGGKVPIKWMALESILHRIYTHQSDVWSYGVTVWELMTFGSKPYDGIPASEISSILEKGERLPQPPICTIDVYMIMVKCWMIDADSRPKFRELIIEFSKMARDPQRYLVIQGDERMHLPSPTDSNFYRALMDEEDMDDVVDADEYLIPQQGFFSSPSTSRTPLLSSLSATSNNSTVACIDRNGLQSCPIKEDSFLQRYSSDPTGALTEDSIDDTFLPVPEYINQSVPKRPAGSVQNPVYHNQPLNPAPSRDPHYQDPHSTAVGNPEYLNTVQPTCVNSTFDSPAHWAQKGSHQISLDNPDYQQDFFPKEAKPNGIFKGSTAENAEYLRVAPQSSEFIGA
Protocol: as §1, §2, §3, §4, §5, §6

GI50 [1] | IC50 (A431 (EGFR-WT)) | GI50 [2] | Structure (SMILES)
25.2 nM | 1020 nM | – | C=CC(=O)Nc1cc(Nc2nccc(N3CC4(CCCC4)c4nc(C)ccc43)n2)c(OCC(F)(F)F)nc1N(C)CCN(C)C [Example 49, N-(2-((2-(dimethylamino)ethyl) (methyl)amino)-5-((4-(5′-methyl-spiro[cyclopentane-1,3′-pyrrolo[3,2-b]pyridin]-1′(2′H)-yl)pyrimidin-2-yl)amino)-6-(2,2,2-trifluoroethoxy)pyridin-3-yl)acrylamide]
22.6 nM | 402 nM | 21.6 nM | C=CC(=O)Nc1cc(Nc2nccc(N3CC(C)(C)c4nc(C5CC5)ccc43)n2)c(OC(F)F)cc1N(C)CCN(C)C [Example 46, N-(5-((4-(5-cyclopropyl-3,3-dimethyl-2,3-dihydro-1H-pyrrolo[3,2-b]pyridin-1-yl)pyrimidin-2-yl)amino)-4-(difluoromethoxy)-2-((2-(dimethylamino)ethyl)(methyl)amino)phenyl)acrylamide]
17.1 nM | 494 nM | 31.9 nM | C=CC(=O)Nc1cc(Nc2nccc(N3CC4(CCC4)c4nc(C)ccc43)n2)c(OC(F)F)cc1N(C)CCN(C)C [Example 64, N-(4-(difluoromethoxy)-2-((2-(dimethylamino)ethyl)(methyl)amino)-5-((4-(5′-methylspiro[cyclo-butane-1,3′-pyrrolo[3,2-b]pyridin]-1′(2′H)-yl)pyrimidin-2-yl)amino)phenyl)acrylamide]
38.1 nM | 42.2 nM | 65.3 nM | C=CC(=O)Nc1cc(Nc2ncnc(N3CC(C)(C)c4nc(C)c(C)cc43)n2)c(OCC)cc1N(C)CCN(C)C [Example 30, N-(2-((2-(dimethylamino)ethyl) (methyl)amino)-4-ethoxy-5-((4-(3,3,5,6-tetramethyl-2,3-dihydro-1H-pyrrolo[3,2-b]pyridin-1-yl)-1,3,5-triazin-2-yl)amino)phenyl)acrylamide]
34.5 nM | 747 nM | 110 nM | C=CC(=O)Nc1cc(Nc2nccc(N3CC(C)(C)c4nc(-n5cnc(C)c5)ccc43)n2)c(OC)cc1N(C)CCN(C)C [Example 60, N-(5-((4-(3,3-dimethyl-5-(4-methyl-1H-imidazole-1-yl)-2,3-dihydro-1H-pyrrolo[3,2-b]pyridin-1-yl)pyrimidin-2-yl)amino)-2-((2-(dimethylamino)ethyl)(methyl)amino)-4-methoxyphenyl)acrylamide]
12.9 nM | 378 nM | 5.6 nM | C=CC(=O)Nc1cc(Nc2nccc(N3CC(C)(C)c4nc(C)ccc43)n2)c(OC(F)F)cc1N(C)CCN(C)C [Example 47, N-(4-(difluoromethoxy)-2-((2-(dimethylamino)ethyl)(methyl)amino)-5-((4-(3,3,5-trimethyl-2,3-dihydro-1H-pyrrolo[3,2-b]pyridin-1-yl)pyrimidin-2-yl)amino)phenyl) acrylamide]
21.7 nM | 582 nM | 36.3 nM | C=CC(=O)Nc1cc(Nc2nccc(N3CC4(CCC4)c4ncccc43)n2)c(OC(F)F)cc1N(C)CCN(C)C [Example 62, N-(4-(difluoromethoxy)-2-((2-(dimethylamino)ethyl)(methyl)amino)-5-((4-(spiro[cyclobutane-1,3′-pyrrolo[3,2-b]pyridin]-1′(2′H)-yl)pyrimidin-2-yl)amino)phenyl) acrylamide]
37 nM | 815 nM | 74.8 nM | C=CC(=O)Nc1cc(Nc2cc(N3CC(C)(C)c4nc(C)ccc43)ccn2)c(OC)nc1N(C)CCN(C)C [Example 15, N-(2-((2-(dimethylamino)ethyl) (methyl)amino)-6-methoxy-5-((4-(3,3,5-trimethyl-2,3-dihydro-1H-pyrrolo[3,2-b]pyridin-1-yl)pyridin-2-yl)amino)pyridin-3-yl)acrylamide]
32.9 nM | 189 nM | 54.2 nM | C=CC(=O)Nc1cc(Nc2nccc(N3CC4(CCC4)c4nc(C)ccc43)n2)c(OC)cc1N(C)CCN(C)C [Example 52, N-(2-((2-(dimethylamino)ethyl) (methyl)amino)-4-methoxy-5-((4-(5′-methylspiro[cyclobutane-1,3′-pyrrolo[3,2-b]pyridin]-1′(2′H)-yl)pyrimidin-2-yl)amino)phenyl) acrylamide]
26.6 nM | 411 nM | 31.4 nM | C=CC(=O)Nc1cc(Nc2nccc(N3CC(C)(C)c4nc(C)ccc43)n2)c(OC)cc1N(C)CCN(C)C [Example 5, N-(2-((2-(dimethylamino)ethyl) (methyl)amino)-4-methoxy-5-((4-(3,3,5-trimethyl-2,3-dihydro-1H-pyrrolo[3,2-b]pyridin-1-yl)pyrimidin-2-yl)amino)phenyl)acrylamide]
20 nM | 22.1 nM | 45.5 nM | C=CC(=O)Nc1cc(Nc2ncnc(N3CC4(CCCC4)c4nc(C)ccc43)n2)c(OC)cc1N(C)CCN(C)C [Example 29, N-(2-((2-(dimethylamino)ethyl) (methyl)amino)-4-methoxy-5-((4-(5′-methylspiro[cyclopentane-1,3′-pyrrolo[3,2-b]pyridin]-1′(2′H)-yl)-1,3,5-triazin-2-yl)amino)phenyl) acrylamide]
42.1 nM | 101 nM | 87.4 nM | C=CC(=O)Nc1cc(Nc2cc(N3CC(C)(C)c4nc(C)ccc43)ncn2)c(OC)cc1N1CCC[C@@H]1CN(C)C [Example 13, (R)-N-(5-((6-(3,3,5-trimethyl-2,3-dihydro-1H-pyrrolo[3,2-b]pyridin-1-yl)pyrimidin-4-yl)amino)-2-(2-((dimethylamino)methyl)pyrrolidin-1-yl)-4-methoxyphenyl)acrylamide]
66.3 nM | 841 nM | 111 nM | C=CC(=O)Nc1cc(Nc2cc(N3CC(C)(C)c4nc(C)ccc43)ccn2)c(OC)cc1N1CCC[C@@H]1CN(C)C [Example 3]
41.6 nM | – | 142 nM | C=CC(=O)Nc1cc(Nc2nccc(N3CC(C)(C)c4ncc(-c5ccccc5F)cc43)n2)c(OC)cc1N(C)CCN(C)C [Example 19, N-(2-((2-(dimethylamino)ethyl) (methyl)amino)-5-((4-(6-(2-fluoro-phenyl)-3,3-dimethyl-2,3-dihydro-1H-pyrrolo[3,2-b]pyridin-1-yl)pyrimidin-2-yl)amino)-4-methoxy-phenyl)acrylamide]
60 nM | – | 142 nM | COc1cc(N(C)CCN(C)C)c(N)cc1Nc1nccc(N2CC(C)(C)c3ncc(-c4c(F)cccc4F)cc32)n1 [Example 18, N^4-(4-(6-(2,6-difluorophenyl)-3,3-dimethyl-2,3-dihydro-1H-pyrrolo [3,2-b]pyridin-1-yl)pyrimidin-2-yl)-N^1-(2-(dimethylamino)ethyl)-5-methoxy-N^1-methylbenzene-1,2,4-triamine]
22.9 nM | – | 76.1 nM | C=CC(=O)Nc1cc(Nc2cc(N3CC(C)(C)c4nc5c(cc43)CCC5)ncn2)c(OC)cc1N(C)CCN(C)C [Example 26, N-(5-((6-(3,3-dimethyl-3,5,6,7-tetrahydrocyclopenta[b]pyrrolo[2,3-e]pyridin-1(2H)-yl)pyrimidin-4-yl)amino)-2-((2-(dimethylamino)ethyl)(methyl)amino)-4-methoxy-phenyl)acrylamide]
43.8 nM | – | 139 nM | C=CC(=O)Nc1cc(Nc2nccc(N3CC(C)(C)c4nc(-n5cncc5C)ccc43)n2)c(OC)cc1N(C)CCN(C)C [Example 59, N-(5-((4-(3,3-dimethyl-5-(5-methyl-1H-imidazole-1-yl)-2,3-dihydro-1H-pyrrolo[3,2-b]pyridin-1-yl)pyrimidin-2-yl)amino)-2-((2-(dimethylamino)ethyl)(methyl)amino)-4-methoxyphenyl)acrylamide]
